Measurements reported in patent US11680939B2, “Systems and methods for detecting bioactive compounds using sensors with pre-stimulated cells” (priority 2019, dated 2023).

Tested on: sensor cells
Experiment: Impedance response of a sensor with photosensitive living cells to light pulses on exposure to a cytotoxin (FIG. 9)
Format: cell-based
Conditions: toxin sample vs. clean sample, optically stimulated sensor cells
From the text: FIG. 2 illustrates an exemplary behavior of sensor cells when exposed to light according to some embodiments of the present invention. Some embodiments employ sensor cells which are genetically modified to express an opsin (e.g., channel rhodopsin, without loss of generality), and/or other channel proteins with a role in maintaining cellular homeostasis (e.g., potassium channel ROMK1, without loss of generality). In the illustrated example, exposure to light induces a sudden intake of sodium ions through the cell membrane, which may substantially change the membrane potential and therefore the measured impedance of the respective cell. […]
FIGS. 4-A-B show exemplary impedance responses of a sensor to a single light pulse and to a pulse train, respectively, according to some embodiments of the present invention wherein the sensor is prepared to contain cells having optically-sensitive ion channels. As the cellular membrane potential changes in response to the light pulse(s), the change is registered in the measured impedance of the sensor. […] This observation enables some embodiments of the present invention to detect and/or quantitate the target analyte from time series of impedance measurements. […]
A step 120 acquires a target impedance time series comprising a plurality of values, at least two of which are determined at distinct moments in time. […]

Compound: C[C@@H]1O[C@@H](O[C@H]2C[C@@H](O)[C@]3(CO)[C@H]4[C@H](O)C[C@]5(C)[C@@H](C6=CC(=O)OC6)CC[C@]5(O)[C@@H]4CC[C@]3(O)C2)[C@H](O)[C@H](O)[C@H]1O [ouabain]
- response of the sensor to exposure to a cytotoxin (impedance response, membrane repolarization after light pulses): visible modifications of cell homeostasis
